Read-outs that look alike come from different tables or passages of the source.
Assays:
Assay in all cases: […]bicarbonate incorporation into malonyl-CoA
Type in all cases: biochemical
ACCase (Phalaris minor) = biological target: T1, ACCase (Phalaris minor); settings: 1.5 mM ATP, 5 mM acetyl-CoA, 5 mM MgCl2, 15 mM NaH14CO3, pH 8.3, 34 °C, S biotype, read-out: I50
T1 construct: cytosolic form not separated

[1] = biological target: T2, ACCase (Phalaris brachystachys); settings: 1.5 mM ATP, 5 mM acetyl-CoA, 5 mM MgCl2, 15 mM NaH14CO3, pH 8.3, 34 °C, R biotype (zygosity not given), stated gain, read-out: I50
T2 construct: cytosolic form not separated

[2] = biological target: T2, ACCase (Phalaris brachystachys); settings: 1.5 mM ATP, 5 mM acetyl-CoA, 5 mM MgCl2, 15 mM NaH14CO3, pH 8.3, 34 °C, S biotype, read-out: I50
[3] = biological target: T3, ACCase (Phalaris paradoxa); settings: 1.5 mM ATP, 5 mM acetyl-CoA, 5 mM MgCl2, 15 mM NaH14CO3, pH 8.3, 34 °C, S biotype, read-out: I50
T3 construct: cytosolic form not separated

[4] = table labels herbicide diclofop-methyl, methods say DM acid

SMILES | IC50 (ACCase (Phalaris minor); [4]) | IC50 [1, 4] | IC50 [2, 4] | IC50 [3, 4] | IC50 (ACCase (Phalaris minor)) | IC50 [1] | IC50 [2] | IC50 [3]
CC(Oc1ccc(Oc2ccc(Cl)cc2Cl)cc1)C(=O)O (stereo not drawn) [DM acid] | 850 ± 30 nM | 6650 ± 780 nM | 320 ± 50 nM | 590 ± 230 nM |  |  |  | 
CCCC(=NOCC)C1=C(O)CC(C2CCCSC2)CC1=O (stereo not drawn) [cycloxydim] |  |  |  |  | 670 ± 910 nM | 2400 ± 340 nM | 220 ± 20 nM | 460 ± 60 nM
CCc1cc(C)cc(CC)c1-c1c(OC(=O)C(C)(C)C)n2n(c1=O)CCOCC2 [pinoxaden] |  |  |  |  | 590 ± 70 nM | 14400 ± 1900 nM | 780 ± 10 nM | 660 ± 90 nM

Reference: publication PMC8401167, “Point Mutations and Cytochrome P450 Can Contribute to Resistance to ACCase-Inhibiting Herbicides in Three Phalaris Species” (Plants, 2021)
